Converted amounts (≈) assume the structure as drawn. Read-outs that look alike come from different tables or passages of the source.
Tests used:
PfPolδ-cat = biological target: T1, PfPolδ-cat (Plasmodium falciparum, UniProt P30315); test: DNA polymerase assay, inhibitory effects of compounds on PfPolδ-cat activity; format: biochemical
T1 construct: The 3285-bp full-length PfPolδ-cat of P. falciparum K1 strain was successfully amplified and cloned; thioredoxin (N); His6 (C); made in house; host or cells: Escherichia coli LMG194
T1 sequence (P30315 whole entry): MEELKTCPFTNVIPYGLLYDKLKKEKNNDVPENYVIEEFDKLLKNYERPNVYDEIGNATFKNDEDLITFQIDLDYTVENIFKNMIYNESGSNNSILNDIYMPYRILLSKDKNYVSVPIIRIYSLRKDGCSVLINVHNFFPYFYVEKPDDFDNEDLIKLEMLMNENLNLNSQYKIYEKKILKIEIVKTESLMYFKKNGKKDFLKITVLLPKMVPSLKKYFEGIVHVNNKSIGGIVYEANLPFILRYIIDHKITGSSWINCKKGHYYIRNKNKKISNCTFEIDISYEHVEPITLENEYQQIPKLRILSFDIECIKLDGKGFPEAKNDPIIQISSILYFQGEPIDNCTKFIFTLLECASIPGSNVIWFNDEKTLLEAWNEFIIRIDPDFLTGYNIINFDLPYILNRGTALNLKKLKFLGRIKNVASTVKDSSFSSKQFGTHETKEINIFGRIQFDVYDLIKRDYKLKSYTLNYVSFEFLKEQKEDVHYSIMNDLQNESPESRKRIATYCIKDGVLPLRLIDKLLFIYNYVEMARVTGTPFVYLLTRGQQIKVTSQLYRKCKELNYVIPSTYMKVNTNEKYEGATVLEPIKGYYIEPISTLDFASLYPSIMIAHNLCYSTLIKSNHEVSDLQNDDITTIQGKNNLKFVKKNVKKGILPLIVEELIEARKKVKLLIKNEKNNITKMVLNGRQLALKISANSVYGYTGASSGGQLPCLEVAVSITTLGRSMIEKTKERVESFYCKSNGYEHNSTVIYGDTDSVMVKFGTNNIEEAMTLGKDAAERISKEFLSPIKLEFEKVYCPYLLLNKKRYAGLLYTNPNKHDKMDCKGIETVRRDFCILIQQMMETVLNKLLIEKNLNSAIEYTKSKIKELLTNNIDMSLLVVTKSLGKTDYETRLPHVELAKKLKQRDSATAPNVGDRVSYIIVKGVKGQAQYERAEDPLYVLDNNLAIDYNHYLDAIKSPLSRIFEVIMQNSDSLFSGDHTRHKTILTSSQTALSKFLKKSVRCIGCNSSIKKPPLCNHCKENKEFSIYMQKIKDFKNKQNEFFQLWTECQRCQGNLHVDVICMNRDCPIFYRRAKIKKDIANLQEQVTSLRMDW
Method: DNA polymerase activity was assayed using activated calf thymus DNA (CT-DNA) (Sigma-Aldrich, MA, USA) as substrate. DNA polymerase assay was conducted in a 50-μl reaction mixture containing 10 μg of activated CT-DNA, 20 mM potassium phosphate buffer pH 8, 10 mM MgCl2, 2 mM DTT, 10 μg BSA, 50 μM each of dGTP, dATP and dCTP, 1 μM dTTP, 2.5 μM [α-^32P]dTTP (800 Ci/mmol; PerkinElmer, MA, USA), and 42 nM PfPolδ-cat. After incubation for 1 h at 37 °C, the reactions were terminated by adding a 250-μl mixture of 20 mM EDTA, 0.1 mg/ml BSA and 100 μl of 50 % trichloroacetic acid (TCA), followed by sedimentation. The precipitate was then washed twice with 1 % TCA and [^32P]dTMP incorporation was measured in a 1450 MicroBeta® Trilux Liquid Scintillation Counter (Perkin Elmer). One unit of DNA polymerase activity is defined as the amount of enzyme that catalyzes the incorporation of 1 nmol of dTMP into DNA in 1 h at 37 °C.
Inhibitory activity of 11 compounds consisting of substrate and nucleotide analogs and potential active site occupiers of PfPolδ-cat were compared with known Pol δ inhibitors, aphidicolin and N-ethylmaleimide (NEM). Stock solution (6 mM) of aphidicolin was prepared in dimethylsulfoxide (DMSO) and that of NEM (400 mM) in absolute ethanol. Stock solutions (10 mM) of N^2-(4-butylphenyl)-2′-deoxyguanosine 5′-triphosphate (BuPdGTP), N^2-(4-butylphenyl)- 2′-deoxyguanosine 5′-(P^2,P^3-carbonyltriphosphonate) (BuPdGMPPCOP), N^2-ethyl-2′-deoxyguanosine 5′-[…] (EtdGTP), N^2-hexyl-2′-deoxyguanosine 5′-triphosphate (HexdGTP) and Acyclovir triphosphate (ACV-TP) were prepared in sterile distilled water, while those of 2-amino-4-chloro-6-(3,4-dichloroanilino)pyrimidine, 2-amino-4-chloro-6-(3,5-dichloroanilino)pyrimidine, N^2-(3,4-dichlorobenzyl)guanine (DCBG), N^2-(3-fluoro,4-chlorobenzyl)guanine, 3-(4-hydroxybutyl)-6-(3-ethyl-4-methylanilino)uracil (HB-EMAU), and 7-acetoxypentyl-(3,4-dichlorobenzyl)guanine (7-acetoxypentyl-DCBG) were prepared in DMSO. All stock solutions were stored at −20 °C until used. Test concentrations of compounds were prepared by diluting stock solution with 10 mM Tris–HCl pH 8.0 and evaluated in triplicate. Compounds were added directly to the reaction mixtures except for NEM that was pre-incubated with enzyme for 30 min on ice before addition to the reaction mixture. Polymerase activity assays were conducted as described above.

[1] = system: Plasmodium falciparum K1 strain; test: Inhibition of intra-erythrocytic P. falciparum growth in culture (SYBR Green I-based assay); format: cell-based; settings: K1 strain (chloroquine- and pyrimethamine-resistant), in vitro growth, triplicate
Method: Plasmodium falciparum strain K1, a chloroquine- and pyrimethamine-resistant strain from Thailand [28] was cultivated in RPMI 1640 medium (Invitrogen™, CA, USA) supplemented with 10 % human serum and human red blood cell (RBC) at 37 °C under an atmosphere of 5 % CO2. Plasmodium falciparum cultures containing mostly trophozoite and schizont stages were harvested when parasitaemia was >10 % by centrifugation at 500×g for 10 min at 25 °C.
Plasmodium falciparum K1 strain was synchronized at ring stage using 5 % D-sorbitol treatment and then mixed with culture medium containing RPMI 1640 medium supplement with 10 % human serum. Twofold serial dilutions of each test compound were evaluated in triplicate. Parasite growth was determined by a SYBR Green I-based assay. Dose–response curves and IC50 values were obtained using SigmaPlot 12.0.

[2] = design: method as in PMID 21684746; settings: IP dose of 60 mg/kg; cited from earlier work
[3] = design: method as in PMID 21684746; settings: potent antibiotic; cited from earlier work
[4] = recombinant PfPolδ-cat DNA polymerase activity, activated CT-DNA, 1 h at 37 °C, triplicate, read-out: IC50 PfPolδ-cat

C[C@@]1(CO)[C@H](O)CC[C@@]2(C)[C@H]1CC[C@H]1C[C@@H]3C[C@@]12CC[C@]3(O)CO [aphidicolin, reference compound]
IC50 (PfPolδ-cat): 11.8 µM

O=c1[nH]c(NCc2ccc(Cl)c(F)c2)nc2nc[nH]c12 [N^2-(3-fluoro,4-chlorobenzyl)guanine]
IC50 ([1]; Plasmodium falciparum): 7.4 ± 0.3 µM

CC(=O)OCCCCCn1cnc2nc(NCc3ccc(Cl)c(Cl)c3)[nH]c(=O)c21 [7-acetoxypentyl-DCBG, 7-acetoxypentyl-(3,4-dichlorobenzyl)guanine]
mice survived after treatment [2]: 80% | MIC [3]: 1.25 µg/mL (≈ 2.85 µM) | IC50 (PfPolδ-cat; [4]): 55 ± 3.4 µM | IC50 [1]: 4.1 ± 0.2 µM

O=c1[nH]c(NCc2ccc(Cl)c(Cl)c2)nc2nc[nH]c12 [DCBG, N^2-(3,4-dichlorobenzyl)guanine]
IC50 ([1]; Plasmodium falciparum): 8.8 ± 0.5 µM

CCCCc1ccc(Nc2nc3c(ncn3C3CC(O)C(COP(=O)(O)OP(=O)(O)C(=O)P(=O)(O)O)O3)c(=O)[nH]2)cc1 (centres unmarked) [BuPdGMPPCOP, N^2-(4-butylphenyl)-2′-deoxyguanosine 5′-(P^2,P^3-carbonyltriphosphonate)]
IC50 PfPolδ-cat (Inactive = <20 % inhibition at 100 μM) (PfPolδ-cat; recombinant PfPolδ-cat DNA polymerase activity, 100 μM compound): Inactive^a | IC50 [1]: 173 ± 2.7 µM

Nc1nc(Cl)cc(Nc2ccc(Cl)c(Cl)c2)n1 [2-amino-4-chloro-6-(3′,4′-dichloroanilino)pyrimidine]
IC50 (PfPolδ-cat; [4]): 104 ± 5.6 µM | IC50 ([1]; Plasmodium falciparum): 3.8 ± 0.3 µM

Nc1nc(Cl)cc(Nc2cc(Cl)cc(Cl)c2)n1 [2-amino-4-chloro-6-(3′, 5′-dichloroanilino)pyrimidine]
IC50 (PfPolδ-cat; [4]): 185 ± 7.7 µM | IC50 ([1]; Plasmodium falciparum): 34.4 ± 0.4 µM

Nc1nc2c(ncn2COCCOP(=O)(O)OP(=O)(O)OP(=O)(O)O)c(=O)[nH]1 [Acyclovir triphosphate]
IC50 ([1]; Plasmodium falciparum): 347 ± 8.3 µM

CCCCCCNc1nc2c(ncn2[C@H]2C[C@H](O)[C@@H](COP(=O)(O)OP(=O)(O)OP(=O)(O)O)O2)c(=O)[nH]1 [HexdGTP, N^2-hexyl-2′-deoxyguanosine 5′-triphosphate]
IC50 ([1]; Plasmodium falciparum): 86.4 ± 0.2 µM

CCCCc1ccc(Nc2nc3c(ncn3[C@H]3C[C@H](O)[C@@H](COP(=O)(O)OP(=O)(O)OP(=O)(O)O)O3)c(=O)[nH]2)cc1 [BuPdGTP, N^2-(4-butylphenyl)-2′-deoxyguanosine 5′-triphosphate]
IC50 (PfPolδ-cat; [4]): 38 ± 1.7 µM | IC50 ([1]; Plasmodium falciparum): 85.6 ± 3.7 µM
